# Results from patent publication US20130171217A1, “ENZYMATIC PERACID GENERATION FOR USE IN SKIN CARE PRODUCTS” (E I DU PONT DE NEMOURS AND COMPANY, priority 2010, published 2013).
# B1: SEQ ID NO: 317: acetyl xylan esterase from Bacillus pumilus fused at its C-terminus to hair binding domain HC263 via a flexible linker (protein)
# chain: MQLFDLSLEELKKYKPKKTARPDFSDFWKKSLEELRQVEAEPTLESYDYPVKGVKVYRLTYQSFGHSKIEGFYAVPDQTGPHPALVRFHGYNASYDGGIHDIVNWALHGYATFGMLVRGQGGSEDTSVTPGGHALGWMTKGILSKDTYYYRGVYLDAVRALEVIQSFPEVDEHRIGVIGGSQGGALAIAAAALSDIPKVVVADYPYLSNFERAVDVALEQPYLEINSYFRRNSDPKVEEKAFETLSYFDLINLAGWVKQPTLMAIGLIDKITPPSTVFAAYNHLETDKDLKVYRYFGHEFIPAFQTEKLSFLQKHLLLSTGPGSGGAGSPGSAGGPGSPSAQSQLPDKHSGLHERAPQRYGPEPEPEPEPIPEPPKEAPVVIEKPKPKPKPKPKPPAHDHKNQKETHQRHAAGSGGGGSPHHHHHH
# B2: SEQ ID NO: 337: L29P variant of Pseudomonas fluorescens hydrolase fused to the charged peptide (GK)5-His6 via a flexible linker (protein)
# chain: MSTFVAKDGTQIYFKDWGSGKPVLFSHGWPLDADMWEYQMEYLSSRGYRTIAFDRRGFGRSDQPWTGNDYDTFADDIAQLIEHLDLKEVTLVGFSMGGGDVARYIARHGSARVAGLVLLGAVTPLFGQKPDYPQGVPLDVFARFKTELLKDRAQFISDFNAPFYGINKGQVVSQGVQTQTLQIALLASLKATVDCVTAFAETDFRPDMAKIDVPTLVIHGDGDQIVPFETTGKVAAELIKGAELKVYKDAPHGFAVTHAQQLNEDLLAFLKRGPGSGGAGSPGSAGGPGSGKGKGKGKGKHHHHHH
# Tests used:
# [1] = Single fiber tensile strength test of hair after chemical treatment (NAIR, PAA, bleach creams, reductive solution, triacetin/H2O2)
# From the text: Since the quality and diameter of the hair samples are variables, hair sample pre-selection is used to achieve reasonable standard deviation in the tensile strength test. […] To prevent contamination, gloves were used while handing hair fiber samples.
# Plastic transfer pipette tubes were cut to 2^7/8 inches (approximately 7.3 cm) by cutting off the bulb end. A hair bundle with 7 to 20 hair strands was carefully inserted into the tube keeping the hair fibers together by taping one end together and attached to the outside top of the wider end of the transfer pipette. This also helped to keep the strands in place once in the tube.
# Solution/cream (200 μL) was added to a 2.0-mL microfuge tube. The hair sample was placed into tube by inserting the smaller end of transfer pipette inside tube with hair protruding out of the tip such that the hair strands formed a U shape and the free end of the strands hung loosely outside of the microfuge tube.
# After certain application, hair samples were dried and equilibrated in the temperature and humidity control room for at least 12 hr, preferably 24 hr, before tensile strength test.
# Hair samples were cut into pieces 4-inches in length. The denier number (liner mass density) of each hair fiber was measured by Textechno Vibromat Instrument (Textechno Herbert Stein GmbH & Co. KG; Germany). The hair fibers were tested according to ASTM D 3822-01 (“Tensile Properties of Single Textile Fibers”; ASTM International, West Conshohocken, Pa., 2001), on an Instron testing system (Instron Model 1122 Tester; Instron, Mass.) at about 70° F. (approximately 21° C.) and 65% relative humidity. The treated area of the hair sample was placed in the middle of the gauge and both ends were gripped on the test heads. Both fiber ends were attached on a piece of tape, respectively, for easy handling and gripping on the test heads. The test used 2-inch (5.1 cm) gauge length, […], and 1.2 inch/min (3 cm/min) pulling rate. The force-strain curve of the fiber was recorded during the test. The tenacity at maximum (gf/den) was calculated by dividing maximum force (gf) by denier number (den). Note that (gf/den)/11.33=Newtons/tex (N/tex).
# Tenacity at maximum (tensile strength) of each hair sample was used to compare the integrity of the hair sample. A lower value of the tenacity at maximum is indicative of an improved weakening efficacy. A commercial depilatory cream, NAIR® (an alkali/potassium thioglycolate-based hair removal product from Church and Dwight Co., Inc., Princeton, N.J.), was used to set a target level for hair weakening. Based on the NAIR® product instruction, the recommended treatment time is 3 min to 10 min. Therefore, the tenacity at maximum of a hair sample treated with NAIR® between 3 min to 10 min was used to determine the target level. During hair treatment, about 200 μL of NAIR® cream was added to a 2-mL microfuge tube and hair samples were soaked in the cream for 3, 5 and 10 min. Hair samples were then rinsed with tape water to remove all the cream and then were dried under a stream of N2. […] Therefore, the desired level of hair weakening efficacy was targeted in the range from 0.8 gf/den to 1.3 gf/den under similar testing conditions.
# Peracetic acid was added in 50 mM phosphate buffer to prepare solutions with different PAA concentrations at pH 6 and pH 8. A PAA solution (200 μL) was added to a 2-mL microfuge tube and hair samples were inserted for 2 hours. Hair samples were then rinsed with deionized water and dried under N2.
# […] […] The treatment was repeated for 7 times or 15 times, i.e., 4 hours and 8 hours of total exposure time, respectively.
# The same multiple treatment as in Example 3 was applied with two commercially available hydrogen peroxide-based bleaching creams (SALLY HANSEN® bleach cream for face and SALLY HANSEN® extra strength bleach cream for face & body; Del Laboratories, Inc., Uniondale, N.Y.) and 6 wt % hydrogen peroxide (H2O2) in a similar pH 8, 20% urea, phosphate solution. […]
# [2] = Wool removal from sheep pelt strips by PAA solutions; details: 15 wt % urea, pH 8
# Procedure: To evaluate the efficacy of PAA solution on removing the wool from a sheep pelt sample, the following experiment was carried out. Pelt strips (0.5 cm×3 cm) were cut and the wool fibers were trimmed to a length of 0.2 cm. Each solution (50 μL) was applied on separated pelt strip (half of the length treated and half of the length untreated). The pelt strip samples were allowed to stand for 10 min at room temperature ([…]). Excess liquid was removed by blotting and the samples were put inside a plastic tube for 30 min for further treatment and then washed with 50 μL of a 2% sodium lauryl ether sulfate (SLES) solution, rinsed with tap water (excess liquid was removed by blotting), and then dried under N2. The treatment was repeated until the wool fibers in treated area were all removed. Three different solutions were tested using this protocol, a) 0.6 wt % PAA, 15 wt % urea, with 0.5 wt % SLES in a pH 8, 50 mM phosphate buffer; b) 0.6 wt % PAA and 15 wt % urea in a pH 8, 50 mM phosphate buffer; c) 0.2 wt % PAA, 15 wt % urea, 0.5 wt % SLES in a pH 8, 50 mM phosphate buffer. At the 19th, 23rd, 24th application, respectively, the wool fibers on the samples treated with solution (a), (b) and (c) were completely removed. The addition of 0.5 wt % SLES seems to accelerate the wool removal process.
# [3] = Perhydrolase activity of targeted hydrolases, ABTS assay; type: biochemical
# Procedure: The ABTS assay was performed as follows: hair samples treated as described above were transferred to new 2-mL microcentrifuge tubes (Eppendorf Protein LoBind; Eppendorf North America, Hauppauge, N.Y.) To each tube was added 480 μL of PAH buffer ([…]), 14 μL of 39% hydrogen peroxide (Sigma 3410), and 6 μL triacetin (Sigma-Aldrich W200700). The perhydrolase reaction was allowed to proceed for 10 minutes at room temperature (˜22-25° C.). The reaction was stopped by diluting aliquots 10×, 100× and 1000× with 10 mM phosphoric acid. For detection 50 μL of 1 M acetic acid, 50 μL of 40 mg/mL potassium iodide, and 50 μL of 4 mM ABTS (2,2′-azino-bis(3-ethylbenzthiazoline-6-sulphonic acid; Sigma, St Louis, Mo.) were added to 50 μL of the above dilutions. Color was allowed to develop for 10 minutes and read in a spectrophotometer at 405 nm. Values from no-enzyme controls were subtracted to yield values attributable only to enzyme activity. A standard curve of OD 405 nm vs PAA concentration in ppm yielded a conversion factor of 8.75, such that an OD 405 nm of 1.0 corresponded to approximately 8.75 ppm PAA. This value was then multiplied by the appropriate dilution to arrive at the PAA concentration in the perhydrolase reaction.
# The perhydrolase activity of the enzymes targeted to hair with a variety of targeting domains produced as described in Example 32 was measured with the ABTS assay.
molecule,measurement,setting,value
"CC(=O)OO [PAA, peracetic acid]",Ten. @ Max,"[1]; [PAA] 0.01 wt % then reductive solution (5 wt % potassium thioglycolate, pH 7.5), 20 min × 16, urea 10 wt %",1.2 gf/den
same,Ten. @ Max,"[1]; [PAA] 0.01 wt %, 20 min × 16, urea 10 wt %, pH 8",1.7 gf/den
same,Ten. @ Max,"[1]; [PAA] 0.02 wt % then reductive solution, 20 min × 16, urea 10 wt %",1.6 gf/den
same,Ten. @ Max,"[1]; [PAA] 0.02 wt %, 20 min × 16, urea 10 wt %, pH 8",1.7 gf/den
same,Ten. @ Max,"[1]; [PAA] 0.02 wt %, soaking 2 hr, pH 6",1.7 gf/den
same,Ten. @ Max,"[1]; [PAA] 0.02 wt %, soaking 2 hr, urea 0 wt %",1.6 gf/den
same,Ten. @ Max,"[1]; [PAA] 0.02 wt %, soaking 4 hr, urea 20 wt %",1.7 gf/den
same,Ten. @ Max,"[1]; [PAA] 0.05 wt % then reductive solution, 20 min × 16, urea 10 wt %",0.8 gf/den
same,Ten. @ Max,"[1]; [PAA] 0.05 wt %, 20 min × 16, urea 10 wt %, pH 8",1.5 gf/den
same,Ten. @ Max,"[1]; [PAA] 0.10 wt % then reductive solution, 20 min × 8, urea 10 wt %",0.9 gf/den
same,Ten. @ Max,"[1]; [PAA] 0.10 wt %, 20 min × 16, urea 10 wt %, pH 8",1.1 gf/den
same,Ten. @ Max,"[1]; [PAA] 0.20 wt % then reductive solution, 20 min × 8, urea 10 wt %",0.7 gf/den
same,Ten. @ Max,"[1]; [PAA] 0.20 wt %, 20 min × 16, urea 10 wt %, pH 8",0.7 gf/den
same,Ten. @ Max,"[1]; [PAA] 0.20 wt %, 30 min × 8, urea 20 wt %, pH 8",1.3 gf/den
same,Ten. @ Max,"[1]; [PAA] 0.20 wt %, 30 min × 16, urea 20 wt %, pH 8",0.6 gf/den
same,Ten. @ Max,"[1]; [PAA] 0.20 wt %, soaking 2 hr, pH 6",1.5 gf/den
same,Ten. @ Max,"[1]; [PAA] 0.20 wt %, soaking 2 hr, pH 8",1.6 gf/den
same,Ten. @ Max,"[1]; [PAA] 0.20 wt %, soaking 2 hr, urea 20 wt %",1.6 gf/den
same,Ten. @ Max,"[1]; [PAA] 0.20 wt %, soaking 4 hr, urea 20 wt %",1.5 gf/den
same,Ten. @ Max,"[1]; [PAA] 0.60 wt %, 30 min × 8, urea 20 wt %, pH 8",0.4 gf/den
same,Ten. @ Max (hair integrity),"[1]; [PAA] 0.60 wt %, 30 min × 16, urea 20 wt %, pH 8",NA: Not applicable as all hair strains in sample 6 lost their integrity before the 16th application and could not be analyzed.
same,Ten. @ Max,"[1]; [PAA] 0.60 wt %, soaking 2 hr, pH 6",1.3 gf/den
same,Ten. @ Max,"[1]; [PAA] 0.60 wt %, soaking 2 hr, pH 8",1.3 gf/den
same,Ten. @ Max,"[1]; [PAA] 0.60 wt %, soaking 2 hr, urea 0 wt %",1.3 gf/den
same,Ten. @ Max,"[1]; [PAA] 0.60 wt %, soaking 2 hr, urea 20 wt %",1.4 gf/den
same,Ten. @ Max,"[1]; [PAA] 0.60 wt %, soaking 4 hr, urea 0 wt %",1.2 gf/den
same,Ten. @ Max,"[1]; [PAA] 0.60 wt %, soaking 4 hr, urea 20 wt %",0.8 gf/den
same,Ten. @ Max,"[1]; [PAA] 2.00 wt %, soaking 2 hr, pH 6",0.9 gf/den
same,Ten. @ Max,"[1]; [PAA] 2.00 wt %, soaking 2 hr, pH 8",0.8 gf/den
same,effective PAA concentration,[1]; longer soaking time and 20% urea,about 0.6 wt %
same,effective PAA concentration to achieve target hair weakening level,"[1]; multiple treatments up to 16 times, 20 wt % urea",0.2 wt %
same,PAA concentration needed to achieve the targeted hair weakening level,"[1]; single application, 2 hours, pH 6 and pH 8",greater than 0.6 wt %
same,application at which the wool fibers were completely removed,"[2]; solution (a): 0.6 wt % PAA, 0.5 wt % SLES",19 application
same,application at which the wool fibers were completely removed,[2]; solution (b): 0.6 wt % PAA,23 application
same,application at which the wool fibers were completely removed,"[2]; solution (c): 0.2 wt % PAA, 0.5 wt % SLES",24 application
B1,Specific perhydrolase activity,[3]; triacetin at pH 7.5,40 µmol/mg/min
B2,Specific perhydrolase activity,[3]; 1 m Na acetate at pH 5.5 instead of triacetin,2.65 µmol/mg/min
